Laboratory results from patent US20230407243A1, “GENETIC PLATFORM TO INVESTIGATE THE FUNCTIONS OF BACTERIAL DRUG EFFLUX PUMPS” (priority 2022, published 2023).
Like-named read-outs stand apart in the source and are kept apart here.

Columns and labels:
Assay type in all cases: cell-based, Escherichia coli
[1] = test system: EKO-35 araC::mexCD (MexCD from P. aeruginosa); assay: MIC susceptibility profiling, efflux platform; conditions: for Fold change of MICs: EKO-35 araC::mexCD compared to EKO-35
In short: (§1)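 Strains are grown overnight in LB at 37 °C, adjusted to OD600 ~1.0 in PBS (pH 7.4) and diluted 1/2000 into MHB II. They are incubated with twofold compound dilutions for 18 h at 37 °C. MIC comes from background-subtracted OD600.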

EKO-35 araC::emrAB = assay: MIC susceptibility profiling, efflux platform; conditions: for Fold change of MICs: EKO-35 araC::emrAB compared to EKO-35
In short: as §1

EKO-35 araC::mdtBC = assay: MIC susceptibility profiling, efflux platform; conditions: for Fold change of MICs: EKO-35 araC::mdtBC compared to EKO-35
In short: as §1

EKO-35 araC::acrEF = assay: MIC susceptibility profiling, efflux platform; conditions: for Fold change of MICs: EKO-35 araC::acrEF compared to EKO-35
In short: as §1

EKO-35 araC::emrKY = assay: MIC susceptibility profiling, efflux platform; conditions: for Fold change of MICs: EKO-35 araC::emrKY compared to EKO-35
In short: as §1

EKO-35 araC::acrD = assay: MIC susceptibility profiling, efflux platform; conditions: for Fold change of MICs: EKO-35 araC::acrD compared to EKO-35
In short: as §1

EKO-35 araC::macAB = assay: MIC susceptibility profiling, efflux platform; conditions: for Fold change of MICs: EKO-35 araC::macAB compared to EKO-35
In short: as §1

EKO-35 araC::mdtEF = assay: MIC susceptibility profiling, efflux platform; conditions: for Fold change of MICs: EKO-35 araC::mdtEF compared to EKO-35
In short: as §1

EKO-35 araC::acrB = assay: MIC susceptibility profiling, efflux platform; conditions: for Fold change of MICs: EKO-35 araC::acrB compared to EKO-35
In short: as §1

EKO-35 araC::acrBD408A = assay: MIC susceptibility profiling, efflux platform; conditions: for Fold change of MICs: EKO-35 araC::acrBD408A compared to EKO-35
In short: as §1

wild-type (WT) K-12-Pore = assay: microbe, parasite or virus in culture; conditions: technical duplicate; for MIC: Escherichia coli
In short: (§2)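 Strains carry the fhuA ΔC/Δ4L pore integrated between glmS and pstS under a constitutive promoter, with pore activity checked by vancomycin susceptibility. Overnight LB cultures were adjusted in PBS pH 7.4 to OD600 ~1.0 and diluted 1/2000 into MHB II. 2-fold compound titrations were read by OD600 after 18 h at 37 °C.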

ΔtolC-Pore = assay: microbe, parasite or virus in culture; conditions: for Minimum inhibitory concentration (MIC), Pore ΔtolC: Table 10, with pore; for Minimum inhibitory concentration (MIC), Pore ΔtolC / Minimum inhibitory concentration, ΔtolC-Pore: technical duplicate; for Minimum inhibitory concentration, ΔtolC-Pore: Table 14A, porinated
In short: as §2

[2] = test system: EKO-35 araC::acrBD408A Pore; assay: MIC susceptibility profiling, porinated efflux platform; conditions: for Fold changes of MICs: EKO-35 araC::acrBD408A Pore compared to EKO-35-Pore; for Minimum inhibitory concentration: EKO-35 araC::acrBD408A Pore, technical duplicate
In short: as §2

EKO-35 araC::acrB Pore = assay: as above; conditions: for Fold changes of MICs: EKO-35 araC::acr-B Pore compared to EKO-35-Pore
In short: as §2

EKO-35 araC::emrAB Pore = assay: as above; conditions: for Fold changes of MICs: EKO-35 araC::emrAB Pore compared to EKO-35-Pore; for Minimum inhibitory concentration: EKO-35 araC::emrAB Pore, technical duplicate
In short: as §2

EKO-35 araC::acrEF Pore = assay: as above; conditions: for Minimum inhibitory concentration, EKO-35 araC::acrEF Pore: Table 14A, porinated, technical duplicate; for Fold changes of MICs: EKO-35 araC::acrEF Pore compared to EKO-35-Pore
In short: as §2

EKO-35 araC::acrD Pore = assay: as above; conditions: for Fold changes of MICs: EKO-35 araC::acrD Pore compared to EKO-35-Pore
In short: as §2

EKO-35-Pore = assay: MIC susceptibility profiling, porinated strain; conditions: for Fold changes of MICs: EKO-35-Pore compared to EKO-35-Pore (reference); for Minimum inhibitory concentration (MIC), Pore EKO-35: Table 10, with pore; for Minimum inhibitory concentration (MIC), Pore EKO-35 / Minimum inhibitory concentration, EKO-35-Pore: technical duplicate; for Minimum inhibitory concentration, EKO-35-Pore: Table 14A, porinated
In short: as §2

[3] = Table 13B, non-porinated, technical duplicate
[4] = Table 13A, non-porinated, technical duplicate
[5] = Table 14A, porinated, technical duplicate

| Compound | Fold change of MICs [1] [fold] | Minimum Inhibitory Concentration, EKO-35 araC::mexCD [1, 3] [µg/mL] | Fold change of MICs (EKO-35 araC::emrAB) [fold] | Minimum Inhibitory Concentration, EKO-35 araC::emrAB (EKO-35 araC::emrAB; [3]) [µg/mL] | Fold change of MICs (EKO-35 araC::mdtBC) [fold] | Minimum Inhibitory Concentration, EKO-35 araC::mdtBC (EKO-35 araC::mdtBC; [3]) [µg/mL] | Fold change of MICs (EKO-35 araC::acrEF) [fold] | Minimum Inhibitory Concentration, EKO-35 araC::acrEF (EKO-35 araC::acrEF; [4]) [µg/mL] | Fold change of MICs (EKO-35 araC::emrKY) [fold] | Fold change of MICs (EKO-35 araC::acrD) [fold] | Fold change of MICs (EKO-35 araC::macAB) [fold] | Fold change of MICs (EKO-35 araC::mdtEF) [fold] | Fold change of MICs (EKO-35 araC::acrB) [fold] | Fold change of MICs (EKO-35 araC::acrBD408A) [fold] | Minimum inhibitory concentration (MIC), Pore ΔtolC (ΔtolC-Pore) [µg/mL] | Fold changes of MICs [2] [fold] | Fold changes of MICs (EKO-35 araC::acrB Pore) [fold] | Fold changes of MICs (EKO-35 araC::emrAB Pore) [fold] | Fold changes of MICs (EKO-35 araC::acrD Pore) [fold] | Fold changes of MICs (EKO-35-Pore) [fold] | further results |
| --- | --- | --- | --- | --- | --- | --- | --- | --- | --- | --- | --- | --- | --- | --- | --- | --- | --- | --- | --- | --- | --- |
| deoxycholate | 4 | 1500 | 4 | 1500 | 4 | 1500 | 4 | 1500 | 1 | 4 | 1 | 4 | 4 | 1 | 46.875 | 1 | 8 | 4 | 8 | 1 | efflux pump-mediated resistance vs EKO-35 (EKO-35 araC::mdtBC; MdtBC): conferred resistance; efflux pump-mediated resistance vs EKO-35 (EKO-35 araC::emrKY; EmrKY): could not substantiate; Minimum Inhibitory Concentration, EKO-35 araC::emrKY (EKO-35 araC::emrKY; [3]): 375 µg/mL; efflux pump-mediated resistance vs EKO-35 (EKO-35 araC::acrD; AcrD): confirmed; Minimum Inhibitory Concentration, EKO-35 araC::acrD (EKO-35 araC::acrD; [4]): 1500 µg/mL; Minimum Inhibitory Concentration, EKO-35 araC::macAB (EKO-35 araC::macAB; [3]): 187.5 µg/mL; Minimum Inhibitory Concentration, EKO-35 araC::mdtEF (EKO-35 araC::mdtEF; [4]): 1500 µg/mL; Minimum Inhibitory Concentration, EKO-35 araC::acrB (EKO-35 araC::acrB; [4]): 1500 µg/mL; Minimum Inhibitory Concentration, EKO-35 araC::acrBD408A (EKO-35 araC::acrBD408A; [3]): 375 µg/mL; Minimum inhibitory concentration (MIC), Pore K-12 (wild-type (WT) K-12-Pore; Table 10, with pore): 1500 µg/mL; Minimum inhibitory concentration, K-12 (WT)-Pore (wild-type (WT) K-12-Pore; Table 14A, porinated): 1500 µg/mL; Minimum inhibitory concentration, ΔtolC-Pore (ΔtolC-Pore): 46.875 µg/mL; Minimum inhibitory concentration [2]: 93.75 µg/mL; Minimum inhibitory concentration, EKO-35 araC::acrB Pore (EKO-35 araC::acrB Pore; [5]): 1500 µg/mL; Minimum inhibitory concentration (EKO-35 araC::emrAB Pore): 750 µg/mL; Minimum inhibitory concentration, EKO-35 araC::acrEF Pore (EKO-35 araC::acrEF Pore): 1500 µg/mL; Minimum inhibitory concentration, EKO-35 araC::acrD Pore (EKO-35 araC::acrD Pore; [5]): 1500 µg/mL; Minimum inhibitory concentration (MIC), Pore EKO-35 (EKO-35-Pore): 187.5 µg/mL; Minimum inhibitory concentration, EKO-35-Pore (EKO-35-Pore): 187.5 µg/mL |
| O=C(Nc1cccc(Oc2c(F)c(F)c(F)c(F)c2F)c1)c1ccccc1 [compound 1] | 1 | 320 | 1 | 320 | 1 | 320 | 1 | 320 | 1 | 1 | 1 | 1 | 1 | 1 | 10 | 1 | 1 | 1 | 1 | 1 | Minimum Inhibitory Concentration, EKO-35 araC::emrKY (EKO-35 araC::emrKY; [3]): 320 µg/mL; Minimum Inhibitory Concentration, EKO-35 araC::acrD (EKO-35 araC::acrD; [4]): 320 µg/mL; Minimum Inhibitory Concentration, EKO-35 araC::macAB (EKO-35 araC::macAB; [3]): 320 µg/mL; Minimum Inhibitory Concentration, EKO-35 araC::mdtEF (EKO-35 araC::mdtEF; [4]): 320 µg/mL; Minimum Inhibitory Concentration, EKO-35 araC::acrB (EKO-35 araC::acrB; [4]): 320 µg/mL; Minimum Inhibitory Concentration, EKO-35 araC::acrBD408A (EKO-35 araC::acrBD408A; [3]): 320 µg/mL; Minimum inhibitory concentration (MIC), Pore K-12 (wild-type (WT) K-12-Pore; Table 10, with pore): 320 µg/mL; Minimum inhibitory concentration, K-12 (WT)-Pore (wild-type (WT) K-12-Pore; Table 14A, porinated): 320 µg/mL; Minimum inhibitory concentration, ΔtolC-Pore (ΔtolC-Pore): 10 µg/mL; Minimum inhibitory concentration [2]: 320 µg/mL; Minimum inhibitory concentration, EKO-35 araC::acrB Pore (EKO-35 araC::acrB Pore; [5]): 320 µg/mL; Minimum inhibitory concentration (EKO-35 araC::emrAB Pore): 320 µg/mL; Fold changes of MICs (EKO-35 araC::acrEF Pore): 1 fold; Minimum inhibitory concentration, EKO-35 araC::acrEF Pore (EKO-35 araC::acrEF Pore): 320 µg/mL; Minimum inhibitory concentration, EKO-35 araC::acrD Pore (EKO-35 araC::acrD Pore; [5]): 320 µg/mL; Minimum inhibitory concentration (MIC), Pore EKO-35 (EKO-35-Pore): 320 µg/mL; Minimum inhibitory concentration, EKO-35-Pore (EKO-35-Pore): 320 µg/mL |
| CN[C@@H]1[C@H](O)[C@H](NC)[C@H]2O[C@@]3(O)C(=O)C[C@@H](C)O[C@H]3O[C@@H]2[C@H]1O [Spectinomycin] | 1 | – | 1 | – | 1 | – | 1 | – | 1 | 1 | 1 | 1 | 1 | 1 | 6.25 | 1 | 2 | 1 | 2 | 1 | MIC ([1]; Table 13B, non-porinated, technical duplicate, read-out: Minimum Inhibitory Concentration, EKO-35 araC::mexCD): 25 µg/mL; MIC (EKO-35 araC::emrAB; Escherichia coli, Table 13B, non-porinated, technical duplicate, read-out: Minimum Inhibitory Concentration, EKO-35 araC::emrAB): 25 µg/mL; MIC (EKO-35 araC::mdtBC; Escherichia coli, Table 13B, non-porinated, technical duplicate, read-out: Minimum Inhibitory Concentration, EKO-35 araC::mdtBC): 25 µg/mL; MIC (EKO-35 araC::acrEF; Escherichia coli, Table 13A, non-porinated, technical duplicate, read-out: Minimum Inhibitory Concentration, EKO-35 araC::acrEF): 25 µg/mL; MIC (EKO-35 araC::emrKY; Escherichia coli, Table 13B, non-porinated, technical duplicate, read-out: Minimum Inhibitory Concentration, EKO-35 araC::emrKY): 25 µg/mL; MIC (EKO-35 araC::acrD; Escherichia coli, Table 13A, non-porinated, technical duplicate, read-out: Minimum Inhibitory Concentration, EKO-35 araC::acrD): 25 µg/mL; MIC (EKO-35 araC::macAB; Escherichia coli, Table 13B, non-porinated, technical duplicate, read-out: Minimum Inhibitory Concentration, EKO-35 araC::macAB): 25 µg/mL; MIC (EKO-35 araC::mdtEF; Escherichia coli, Table 13A, non-porinated, technical duplicate, read-out: Minimum Inhibitory Concentration, EKO-35 araC::mdtEF): 25 µg/mL; MIC (EKO-35 araC::acrB; Escherichia coli, Table 13A, non-porinated, technical duplicate, read-out: Minimum Inhibitory Concentration, EKO-35 araC::acrB): 25 µg/mL; MIC (EKO-35 araC::acrBD408A; Escherichia coli, Table 13B, non-porinated, technical duplicate, read-out: Minimum Inhibitory Concentration, EKO-35 araC::acrBD408A): 25 µg/mL; MIC (wild-type (WT) K-12-Pore; Table 10, with pore, read-out: Minimum inhibitory concentration (MIC), Pore K-12): 12.5 µg/mL; MIC (wild-type (WT) K-12-Pore; Table 14A, porinated, read-out: Minimum inhibitory concentration, K-12 (WT)-Pore): 12.5 µg/mL; MIC (ΔtolC-Pore; Escherichia coli, 18 h, read-out: Minimum inhibitory concentration, ΔtolC-Pore): 6.25 µg/mL; MIC (EKO-35 araC::acrB Pore; Escherichia coli, Table 14A, porinated, technical duplicate, read-out: Minimum inhibitory concentration, EKO-35 araC::acrB Pore): 25 µg/mL; Fold changes of MICs (EKO-35 araC::acrEF Pore): 1 fold; MIC (EKO-35 araC::acrD Pore; Escherichia coli, Table 14A, porinated, technical duplicate, read-out: Minimum inhibitory concentration, EKO-35 araC::acrD Pore): 25 µg/mL |
